Data from US20040097529A1, “Novel use of arylethene sulfonamide derivative” (priority 2001, published 2004).
Counter-ions that a name gives are not always drawn. Like-named read-outs stand apart in the source and are kept apart here. Bridge positions count the residues as written; N and C are the ends. Ends that are not written are not given here.

Tests used:
[1] = test system: chronic renal failure (5/6Nx) rats; settings: for Systolic blood pressure: tail-cuff
Method: Male Wistar rats of 8 weeks of age were used in the experiment. A Rat was anesthetized with petobarbital and ⅔ of the left kidney was cut off, and one week after the right kidney was removed completely. Two weeks after the ⅚ nephrectomy, systolic blood pressure (SBP) was measured by a tail-cuff method, and the urine was collected in a metabolic cage for 24 hours to measure the urinary protein excretion. Rats were divided into 3 groups (each group: n=9) so that no difference occurred between the respective groups. Thereafter, a solvent (0.5% MC) was orally administered to the ⅚Nx-Cont. group at a dose of 5 ml/kg over 8 weeks. […] Similarly, to the ⅚Nx-Ena. group was administered 10 mg/kg/day of enalapril maleate dissolved in a solvent (0.5% MC). On the other hand, the solvent (0.5% MC) alone was orally administered to the abdominal-sectioned rats as a control group (Sham). Every 2 weeks, the urine was collected for 24 hours to measure the urinary protein excretion. Additionally, every 4 weeks, SBP was measured to examine the effect on the blood pressure.
(§1) The results were indicated by the mean±error. In comparison between the Sham group and the ⅚Nx-Cont. group, a t-test was made without correspondence, and when the significant level is less than 5%, it is considered as a significant difference. In comparison between the ⅚Nx rat-drug groups, multiple comparison (Dunnett's test) was made respectively without correspondence following the variance analysis of one-way classification. When the significant level is less than 5%, it is considered as a significant difference.

[2] = test system: diabetic rats induced by streptozotocin (STZ); assay: Effect on the blood parameter and urinary parameter in diabetic rats induced by streptozotocin (STZ); assay type: in vivo, Wistar (Crj) rats; settings: for Blood glucose level: enalapril maleate 10 mg/kg p.o. once a day
Method: Wistar (Crj) rats of 9 weeks of age were divided into 5 groups so that there was no bias in urinary albumin excretion. To the 4 groups of the rats was administered intravenously STZ (50 mg/kg). […] After the lapse of 2, 4 and 6 weeks from the start of administration, urine was collected for 24 hours in a metabolic cage to measure a urinary parameter. The blood was collected from the tail vein after 2 and 4 weeks and from the abdominal aorta under anesthesia after 6 weeks to measure a blood parameter.
as §1, with “STZ-Cont.” for “⅚Nx-Cont.”, “STZ-dose groups of rats,” for “⅚Nx rat-drug groups,”

[3] = test system: STZ-induced diabetic rats; settings: cited from earlier work
[4] = test system: rat's cultured mesangial cells; assay: Effect of ET on the growth and hypertrophy of rat's cultured mesangial cells; assay type: cell-based; settings: for growth and hypertrophy of rat's cultured mesangial cells: depending on the concentration of 10^−12 to 10^−7M; for concentration of the maximum reaction (growth and hypertrophy): rat's cultured mesangial cells
Method: In measurement of the hypertrophy activity, the cells used in the measurement of the cell growth activity using an Alamar Blue reagent were washed 3 times with a phosphate buffer, to which cells was added a direct protein-determining reagent (BioRad) to measure the absorbance at 595 nm. The protein content was calculated from the analytical curve. The protein content per the unit cell number was given as the hypertrophy activity from the cell number obtained by measurement of the growth activity.
The results were indicated by the mean±error.

[5] = enalapril maleate 10 mg/kg p.o.
[6] = enalapril maleate 10 mg/kg p.o., 4 weeks
[7] = 5/6Nx rats, enalapril maleate 10 mg/kg/day p.o., 0 week
[8] = 5/6Nx rats, enalapril maleate 10 mg/kg/day p.o., 4 weeks
[9] = 5/6Nx rats, enalapril maleate 10 mg/kg/day p.o., 8 weeks
[10] = continuously injected intraperitoneally

COc1ccccc1Oc1c(NS(=O)(=O)C=Cc2ccccc2)nc(-c2ncccn2)nc1OC [Compound 1, N-[6-Methoxy-5-(2-methoxyphenoxy)-2-(pyrimidin-2-yl)pyrimidin-4-yl]-2-phenylethenesulfonamide]
death cases (mortality in renal dysfunction cases) ([1]; rat, in vivo, po, 1 mg/kg/day): no death was observed

CCOC(=O)[C@H](CCc1ccccc1)N[C@@H](C)C(=O)N1CCC[C@H]1C(=O)O [Ena., enalapril maleate]
inhibition of elevation of creatinine clearance (Ccr) [2, 5]: there was no tendency that elevation of Ccr was inhibited
urinary albumin excretion (UAE) change [2, 5]: no UAE reduction was observed
Blood glucose level ([2]; 2 weeks): 403.0 ± 13.0 mg/dL
Blood glucose level ([2]; 4 weeks): 393.2 ± 17.6 mg/dL
Blood glucose level ([2]; 6 weeks): 394.3 ± 9.6 mg/dL
Urinary albumin excretion ([2]; enalapril maleate 10 mg/kg p.o., 0 week): 0.46 ± 0.04 mg/day
Urinary albumin excretion ([2]; enalapril maleate 10 mg/kg p.o., 2 weeks): 0.91 ± 0.13 mg/day
Blood cholesterol level [2, 6]: 148.8 ± 11.2 mg/dL
Urinary albumin excretion [2, 6]: 0.65 ± 0.14 mg/day
blood triglyceride level [2, 6]: 407.0 ± 35.7 mg/dL
Urinary albumin excretion ([2]; enalapril maleate 10 mg/kg p.o., 6 weeks): 1.27 ± 0.18 mg/day
hypotensive effect (SBP) ([1]; 5/6Nx rats, enalapril maleate 10 mg/kg/day p.o.): a hypotensive effect was markedly recognized
Urinary protein excretion [1, 7]: 36.9 ± 4.7 mg/day
Systolic blood pressure [1, 7]: 136 ± 4 mmHg
Urinary protein excretion ([1]; 5/6Nx rats, enalapril maleate 10 mg/kg/day p.o., 2 weeks): 45.5 ± 10.5 mg/day
Urinary protein excretion [1, 8]: 78.4 ± 15.3 mg/day
Systolic blood pressure [1, 8]: 129 ± 8 mmHg
Urinary protein excretion ([1]; 5/6Nx rats, enalapril maleate 10 mg/kg/day p.o., 6 weeks): 165.1 ± 28.1 mg/day
Urinary protein excretion [1, 9]: 261.2 ± 43.2 mg/day
Systolic blood pressure [1, 9]: 124 ± 6 mmHg
death cases (mortality in renal dysfunction cases) ([1]; 5/6Nx rats, enalapril maleate 10 mg/kg/day p.o., 9 cases per group): 2
death cases (mortality in renal dysfunction cases) ([1]; 5/6Nx rats, enalapril maleate 10 mg/kg/day p.o., 9 cases per group, listed as enalapril): two death cases

COc1ccccc1Oc1c(NS(=O)(=O)c2ccc(C(C)(C)C)cc2)nc(-c2ncccn2)nc1OCCO [bosentan]
plasma glucose level [3]: do not change the plasma glucose level

COc1cc(OC)nc(O[C@H](C(=O)O)C(OC)(c2ccccc2)c2ccccc2)n1 [darusentan]
blood triglyceride level ([3]; 100 mg/kg, p.o., decreased only in comparison with control group): decreases the blood triglyceride level
Blood glucose level ([3]; 100 mg/kg, p.o.): does not change the blood glucose level
microalbuminuria ([3]; 100 mg/kg/day for 160 days): has a tendency to reduce microalbuminuria

ET-1: Endothelin iso-peptide, endogenous physiologically active peptide consisting of 21 amino acids (CSCSSLMDKECVYFCHLDIIW; disulfide 1-15, 3-11; ends not checked; UniProt P05305 53-73, looked up)
growth and hypertrophy of rat's cultured mesangial cells [4]: promoted the growth and hypertrophy
concentration of the maximum reaction (growth and hypertrophy) [4]: 10^−8 M

ET-3: Endothelin iso-peptide, endogenous physiologically active peptide consisting of 21 amino acids (CTCFTYKDKECVYYCHLDIIW; disulfide 1-15, 3-11; ends not checked; UniProt P14138 97-117, looked up)
growth and hypertrophy of rat's cultured mesangial cells [4]: promoted the growth and hypertrophy
concentration of the maximum reaction (growth and hypertrophy) [4]: 10^−8 M

FR139317
plasma glucose level [3]: do not change the plasma glucose level
excretion of microalbuminuria [3, 10]: reduces excretion of microalbuminuria
gene expression of the extracellular matrix of the glomerulus [3, 10]: inhibits gene expression of the extracellular matrix of the glomerulus
